Key:
[1] = target: Ba/F3 (EGFR^del19/T790M/C797S) triple-mutant cells (Homo sapiens, UniProt P00533, T790M/C797S, cells depend on it, form not given); test: Antiproliferative activity against Ba/F3 (EGFR del19/T790M/C797S) triple-mutant cells, Cell Titer Glow; format: cell-based; conditions: three days after addition of compounds; read-out: Antiproliferative activity BaF3(EGFR^del19/T790M/C797S) IC50
Protocol: (§1) Antiproliferative Activity of the Compounds Disclosed Herein Against Ba/F3 (EGFR^del19/T790M/C797S) Triple-Mutant Cells and A431 (EGFR WT) Cells
(§2) • 3000 Ba/F3 cells carrying EGFR (del19/T790M/C797S) or 2000 A431 cells were seeded in a 384-well plate. After one day, serially diluted compounds were added (up to 500 nM for Ba/F3 cells and up to 10 μM for A431 cells). Three days after the addition of the compounds, Cell Titer Glow was added to evaluate cell growth and the percentage cell growth inhibition by the compounds and the IC50 values were calculated.

A431 (EGFR WT) cells = test: Antiproliferative activity against A431 (EGFR WT) cells, Cell Titer Glow; format: cell-based; conditions: Homo sapiens, A-431, 72 h; three days after addition of compounds; read-out: Antiproliferative activity A431 wild-type (WT) IC50
Protocol: as §1, §2

EGFR (del19/T790M/C797S) = test: HTRF inhibitory activity assay against EGFR (del19/T790M/C797S) enzyme; format: biochemical
Summary of the method: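 Wild-type or mutant EGFR preincubated with serially diluted compound 10 min at 28 °C, then reacted 40 min at room temperature with biotinylated TK substrate and ATP. Phosphorylation detected by HTRF (Eu-cryptate anti-TK antibody, streptavidin-XL665, 60 min), 665/615 nm ratio; % inhibition and IC50 vs control.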

Chain of Ba/F3 (EGFR^del19/T790M/C797S) triple-mutant cells (P00533 with tags, fused parts or gaps DEL746-750/T790M/C797S, form open): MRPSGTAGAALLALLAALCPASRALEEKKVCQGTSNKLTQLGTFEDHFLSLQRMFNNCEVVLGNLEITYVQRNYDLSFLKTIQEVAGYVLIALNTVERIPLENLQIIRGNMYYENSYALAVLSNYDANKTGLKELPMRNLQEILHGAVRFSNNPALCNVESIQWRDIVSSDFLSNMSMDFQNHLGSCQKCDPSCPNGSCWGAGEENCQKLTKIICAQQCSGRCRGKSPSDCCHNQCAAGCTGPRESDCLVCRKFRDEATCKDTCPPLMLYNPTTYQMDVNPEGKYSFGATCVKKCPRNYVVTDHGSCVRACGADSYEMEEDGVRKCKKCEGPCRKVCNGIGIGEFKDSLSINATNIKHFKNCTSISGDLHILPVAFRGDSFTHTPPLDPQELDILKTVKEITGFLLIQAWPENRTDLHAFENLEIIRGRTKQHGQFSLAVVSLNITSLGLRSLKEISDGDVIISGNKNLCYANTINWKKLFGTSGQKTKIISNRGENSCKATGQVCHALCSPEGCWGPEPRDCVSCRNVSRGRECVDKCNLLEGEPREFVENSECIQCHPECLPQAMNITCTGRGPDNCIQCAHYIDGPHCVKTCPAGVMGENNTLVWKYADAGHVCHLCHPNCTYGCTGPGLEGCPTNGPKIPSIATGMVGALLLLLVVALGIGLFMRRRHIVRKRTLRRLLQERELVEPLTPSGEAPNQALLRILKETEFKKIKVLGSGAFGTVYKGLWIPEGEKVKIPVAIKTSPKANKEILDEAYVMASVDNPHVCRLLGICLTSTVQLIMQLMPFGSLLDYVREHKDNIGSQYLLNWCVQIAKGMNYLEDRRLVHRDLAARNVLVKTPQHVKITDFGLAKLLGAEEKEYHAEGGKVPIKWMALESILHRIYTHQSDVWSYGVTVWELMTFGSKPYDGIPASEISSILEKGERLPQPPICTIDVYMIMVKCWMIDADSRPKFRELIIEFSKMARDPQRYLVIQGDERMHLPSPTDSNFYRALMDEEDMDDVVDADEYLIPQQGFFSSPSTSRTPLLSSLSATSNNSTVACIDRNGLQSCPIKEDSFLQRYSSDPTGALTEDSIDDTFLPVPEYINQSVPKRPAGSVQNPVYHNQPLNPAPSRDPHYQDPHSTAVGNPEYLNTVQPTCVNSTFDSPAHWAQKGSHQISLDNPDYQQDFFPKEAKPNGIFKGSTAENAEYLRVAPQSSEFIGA

Row | Structure (SMILES) | GI50 [1] [µM] | IC50 (A431 (EGFR WT) cells) [µM] | EGFR (del19/T790M/C797S) inhibition (%) (0.3 nM compound) (EGFR (del19/T790M/C797S))
1 | CN1CCN(C2CCN(c3ccc(Nc4nc(NC5CCOCC5)c(-c5cccc6[nH]cnc56)nc4C(N)=O)cc3)CC2)CC1 [compound 540] | 0.048 | 1.2 | –
2 | CN1CCN(c2ccc(Nc3nc(NC4CCOCC4)c(-c4cc[nH]n4)nc3C(N)=O)cc2)CC1 [compound 174] | 0.051 | 1 | –
3 | Cc1cnccc1-c1nc(C(N)=O)c(Nc2ccc(N3CCC(N4CCN(C)CC4)CC3)cc2)nc1NC1CCOCC1 [compound 74] | > 0.1 | 2.1 | –
4 | CCc1cc(Nc2nc(NC3CCOCC3)c(-c3cc[nH]n3)nc2C(N)=O)ccc1N1CCC(N2CCN(C)CC2)CC1 [compound 184] | 0.018 | 0.98 | –
5 | Cc1cc(Nc2nc(NC3CCOCC3)c(-c3ccnc4[nH]ccc34)nc2C(N)=O)ccc1N1CCC(N2CCN(C)CC2)CC1 [compound 514] | 0.048 | 0.25 | –
6 | CCc1cc(Nc2nc(NC3CCOCC3)c(-c3ccnc4[nH]ccc34)nc2C(N)=O)ccc1N1CCC(N2CCN(C)CC2)CC1 [compound 516] | 0.042 | 0.35 | –
7 | CN1CCN(C2CCN(c3ccc(Nc4nc(NC5CCOCC5)c(-c5cncc6[nH]ccc56)nc4C(N)=O)cc3)CC2)CC1 [compound 538] | 0.035 | 0.29 | –
8 | CCc1cc(Nc2nc(NC3CCOCC3)c(-c3cccc4[nH]ccc34)nc2C(N)=O)ccc1N1CCC(N2CCN(C)CC2)CC1 [compound 515] | 0.042 | 0.52 | –
9 | Cc1cc(Nc2nc(NC3CCOCC3)c(-c3ccccn3)nc2C(N)=O)ccc1N1CCC(N2CCN(C)CC2)CC1 [compound 213] | 0.226 | > 10 | –
10 | CN1CCN(C2CCN(c3ccc(Nc4nc(NC5CCOCC5)c(-c5cncs5)nc4C(N)=O)cc3)CC2)CC1 [compound 88] | 0.052 | 0.28 | –
11 | CN1CCN(C2CCN(c3ccc(Nc4nc(NC5CCOCC5)c(-c5cccc(N(C)C)c5)nc4C(N)=O)cc3)CC2)CC1 [compound 86] | 0.021 | 1.7 | –
12 | COc1cc(Nc2nc(NC3CC4(COC4)C3)c(-c3cc[nH]n3)nc2C(N)=O)ccc1N1CCC(N2CCN(C)CC2)CC1 [compound 504] | 0.098 | 0.33 | –
13 | CCc1cc(Nc2nc(NC3CCOCC3)c(-c3ccncc3)nc2C(N)=O)ccc1N1CCC(N2CCN(C)CC2)CC1 [compound 161] | 0.054 | 1.2 | –
14 | CN1CCN(C2CCN(c3ccc(Nc4nc(NC5CCOCC5)c(-c5cc[nH]n5)nc4C(N)=O)cc3C3CC3)CC2)CC1 [compound 421] | 0.036 | 0.53 | –
15 | CC(C)c1cc(Nc2nc(NC3CCOCC3)c(-c3cc[nH]n3)nc2C(N)=O)ccc1N1CCC(N2CCN(C)CC2)CC1 [compound 420] | 0.032 | 3.7 | –
16 | CN1CCN(C2CCN(c3ccc(Nc4nc(NC5CCOCC5)c(-c5ccccc5N(C)C)nc4C(N)=O)cc3)CC2)CC1 [compound 85] | 0.357 | 1.5 | –
17 | Cc1cc(Nc2nc(NC3CCOCC3)c(-c3ccncc3)nc2C(N)=O)ccc1N1CCN(C)CC1 [compound 148] | 0.068 | 1.7 | –
18 | COc1cc(Nc2nc(NC3CCOCC3)c(-c3cc[nH]n3)nc2C(N)=O)ccc1N1CCC(N2CCN(C)CC2)CC1 [compound 417] | 0.057 | 0.19 | –
19 | CN1CCN(C2CCN(c3ccc(Nc4nc(NC5CCOCC5)c(-c5ccccc5O)nc4C(N)=O)cc3)CC2)CC1 [compound 99] | – | – | + (+ indicates an inhibition less than or equal to 20%)
20 | COc1cc(N2CCC(N3CCN(C)CC3)CC2)ccc1Nc1nc(NC2CCOCC2)c(-c2ccccc2)nc1C(N)=O [compound 113] | – | – | + (+ indicates an inhibition less than or equal to 20%)
21 | CN1CCN(C2CCN(c3ccc(Nc4nc(NC5CCOCC5)c(-c5ccnc6[nH]ccc56)nc4C(N)=O)cc3F)CC2)CC1 [compound 520] | – | – | +++ (+++ indicates an inhibition greater than 50%.)
22 | CN1CCC(Nc2nc(Nc3ccc(N4CCC(N5CCN(C)CC5)CC4)cc3)c(C(N)=O)nc2-c2ccccc2)CC1 [compound 7] | – | – | + (+ indicates an inhibition less than or equal to 20%)
23 | CN1CCN(C2CCN(c3ccc(Nc4nc(N[C@H]5CCOC5)c(-c5ccncc5)nc4C(N)=O)cc3F)CC2)CC1 [compound 645] | – | – | +++ (+++ indicates an inhibition greater than 50%.)

Row | Structure (SMILES) | GI50 [1] [µM] | IC50 (A431 (EGFR WT) cells) [µM] | EGFR (del19/T790M/C797S) inhibition (%) (0.3 nM compound) (EGFR (del19/T790M/C797S))
24 | CN1CCN(C2CCN(c3ccc(Nc4nc(NC5CCC5)c(-c5ccccc5)nc4C(N)=O)cc3)CC2)CC1 [compound 30] | – | – | ++ (++ indicates an inhibition from 20% to 50%)
25 | CN1CCN(C2CCN(c3ccc(Nc4nc(N[C@@H]5CCOC5)c(-c5ccccc5)nc4C(N)=O)cc3)CC2)CC1 [compound 66] | – | – | + (+ indicates an inhibition less than or equal to 20%)
26 | CN1CCN(C2CCN(c3ccc(Nc4nc(NC5CCOCC5)c(-c5cccc(NS(C)(=O)=O)c5)nc4C(N)=O)cc3)CC2)CC1 [compound 90] | – | – | + (+ indicates an inhibition less than or equal to 20%)
27 | COc1cc(-c2nc(C(N)=O)c(Nc3ccc(N4CCC(N5CCN(C)CC5)CC4)cc3)nc2NC2CCOCC2)ccn1 [compound 67] | – | – | + (+ indicates an inhibition less than or equal to 20%)
28 | Cc1cc(Nc2nc(NC3CCOCC3)c(-c3cccc4[nH]ccc34)nc2C(N)=O)ccc1N1CCC(N2CCN(C)CC2)CC1 [compound 513] | 0.057 | 0.56 | –
29 | CN1CCN(C2CCN(c3ccc(Nc4nc(N[C@@H]5CCOC5)c(-c5ccncc5)nc4C(N)=O)cc3F)CC2)CC1 [compound 643] | – | – | +++ (+++ indicates an inhibition greater than 50%.)
30 | CO[C@H]1CC[C@H](Nc2nc(Nc3ccc(N4CCC(N5CCN(C)CC5)CC4)cc3)c(C(N)=O)nc2-c2ccccc2)CC1 [compound 115] | 0.214 | 2 | –
31 | CN1CCN(C2CCN(c3ccc(Nc4nc(NC5CCC(O)C5)c(-c5ccccc5)nc4C(N)=O)cc3)CC2)CC1 (stereo not shown) [compound 135, 5-((3-hydroxycyclopentyl)amino)-3-((4-(4-(4-methylpiperazin-1-yl)piperidin-1-yl)phenyl)amino)-6-phenylpyrazine-2-carboxamide] | 0.04 | 0.34 | –
32 | CN1CCN(C2CCN(c3ccc(Nc4nc(NCC(C)(C)O)c(-c5cccc6[nH]ccc56)nc4C(N)=O)cc3F)CC2)CC1 [compound 537] | – | – | +++ (+++ indicates an inhibition greater than 50%.)
33 | CN1CCN(C2CCN(c3ccc(Nc4nc(O[C@@H]5CCN(CCO)C5)c(-c5ccccc5)nc4C(N)=O)cc3)CC2)CC1 [compound 131] | > 0.1 | > 10 | –
34 | CN1CCN(C2CCN(c3ccc(Nc4nc(NC5CC5)c(-c5cc[nH]n5)nc4C(N)=O)cc3F)CC2)CC1 [compound 626] | – | – | +++ (+++ indicates an inhibition greater than 50%.)
35 | CN1CC=C(c2nc(C(N)=O)c(Nc3ccc(N4CCC(N5CCN(C)CC5)CC4)cc3)nc2NC2CCOCC2)CC1 [compound 102] | – | – | + (+ indicates an inhibition less than or equal to 20%)
36 | CN1CCN(C2CCN(c3ccc(Nc4nc(NC5CC5)c(-c5cccc6[nH]ccc56)nc4C(N)=O)cc3F)CC2)CC1 [compound 531] | – | – | +++ (+++ indicates an inhibition greater than 50%.)
37 | CN(C)CCNc1nc(Nc2ccc(N3CCC(N4CCN(C)CC4)CC3)cc2)c(C(N)=O)nc1-c1ccccc1 [compound 28] | – | – | + (+ indicates an inhibition less than or equal to 20%)
38 | CN1CCN(C2CCN(c3ccc(Nc4nc(NC5CCC5)c(-c5ccncc5)nc4C(N)=O)cc3)CC2)CC1 [compound 638] | – | – | +++ (+++ indicates an inhibition greater than 50%.)
39 | CN1CCN(C2CCN(c3ccc(Nc4nc(NC5CCOCC5)c(-c5ccc(C(F)F)cc5)nc4C(N)=O)cc3)CC2)CC1 [compound 101] | – | – | + (+ indicates an inhibition less than or equal to 20%)
40 | Cc1cnccc1-c1nc(C(N)=O)c(Nc2ccc(N3CCC(N4CCN(C)CC4)CC3)cc2)nc1NC1CCOCC1 [compound 56] | – | – | + (+ indicates an inhibition less than or equal to 20%)
41 | Cc1cc(-c2nc(C(N)=O)c(Nc3ccc(N4CCC(N5CCN(C)CC5)CC4)c(C)c3)nc2NC2CCOCC2)ccn1 [compound 154] | – | – | ++ (++ indicates an inhibition from 20% to 50%)
42 | CN1CCN(C2CCN(c3ccc(Nc4nc(NC5CC6(COC6)C5)c(-c5cc[nH]n5)nc4C(N)=O)cc3F)CC2)CC1 [compound 628] | – | – | ++ (++ indicates an inhibition from 20% to 50%)
43 | CC(=O)Nc1cccc(-c2nc(C(N)=O)c(Nc3ccc(N4CCC(N5CCN(C)CC5)CC4)cc3)nc2NC2CCOCC2)c1 [compound 100] | – | – | + (+ indicates an inhibition less than or equal to 20%)
44 | CN1CCN(C2CCN(c3ccc(Nc4nc(OC5CCOCC5)c(-c5ccccc5)nc4C(N)=O)cc3)CC2)CC1 [compound 12] | – | – | + (+ indicates an inhibition less than or equal to 20%)
45 | CN1CCN(C2CCN(c3ccc(Nc4nc(NC5COC5)c(-c5ccnc6[nH]ccc56)nc4C(N)=O)cc3)CC2)CC1 [compound 596] | – | – | +++ (+++ indicates an inhibition greater than 50%.)

Reference: patent US12600714B2, “Substituted pyrazinecarboxamide compounds for treating diseases related to EGFR mutation” (WIGEN BIOMEDICINE TECHNOLOGY (SHANGHAI) CO., LTD., priority 2020, dated 2026)
